Test results as given in patent US4866058A, “Method for control of hyperlipidemia” (priority 1988, dated 1989).
Read-outs that look alike come from different tables or passages of the source.

Tests used:
[1] = system: serum cholesterol and serum triglyceride levels; assay: Testing of normal mice: hypolipidemic activity in CF1 mice; assay type: in vivo, CF1 male mice; conditions: for response vs control in vivo at 20 mg/kg/day: Mus musculus
Method: The following compounds were tested for their hypolpidemic activity in CF1 mice.
Compounds A-V as defined above, were suspended in an aqueous 1 percent carboxymethylcellulose (CMC) solution and homogenized. Each of the so prepared compounds were administered to a group of six CF1 male mice, each weighing approximately 25 grams, intraperitioneally for 16 days. Each of these compounds were provided in a dosage of 20 mg/kg/d ip. On Days 9 and 16 blood was obtained by tail vein bleeding. The blood serum so obtained was separated by centrifugation for three minutes. Serum cholesterol levels were determined by a modification of the Liebermann-Burchard reaction (Ness, Clin. Chim. Acta., Vol. 10, 229 [1964]). Serum triglyceride levels were determined on Day 16 by use of the Fisher, Hycel Triglyceride Test Kit.
In addition to the above-described treated mice, an untreated control group of six mice were similarly tested on Days 9 and 16 to determine their serum cholesterol and trigylceride blood levels. Based on the results obtained for the untreated control group, the percent control, based on serum cholesterol and serum triglyceride levels of the treated mice compared to the untreated mice, was obtained. Table 1 reports this percent control, including standard deviation, indicating the level of confidence of these numbers.

in vivo = conditions: mouse, ip
[2] = system: serum cholesterol and serum triglyceride levels; assay: Testing of hyperlipidemic mice (atherogenic diet); assay type: in vivo, CF1 male mice; conditions: hyperlipidemic CF1 mice, 20 mg/kg/d intraperitoneally, Day 12
Method: A group of six CF^1 male mice (about 25 g) were placed on a commercial diet (U.S. Biochemical Corporation Basal Atherogenic Test Diet) which produced a "hyperlipidemic" state. That is, the average serum cholesterol level in the group of treated mice was raised from 122 to 375 mg percent and triglyceride levels were raised from 137 to 367 mg/dL.

serum lipoprotein = assay: Cholesterol content of serum lipoprotein of treated Sprague-Dawley rats; assay type: in vivo; conditions: orally 14 days at 20 mg/kg/day
Excerpt: (§1) A test solution of Compounds A, F, J, M, N and O were suspended in an aqueous solution of 1% CMC, homogenized and administered orally to six Sprague-Dawley male rats, which each weighted approximately 350 grams. Administration of the compounds was by an intubation needle. The rats were each fed with 20 milligrams of Compounds A, F, J, M, N and O per kilogram of body weight per day for 14 days. Similarly, six Sprague-Dawley male rats of approximately the same weight (that used for testing F weighed approximately 160 grams) were fed similar volumes of the same aqueous 1% CMC solution without the active agents, also orally, administered by intubation needle. In addition, as a control, a similar group of six male Sprague-Dawley rats were untreated.
The cholesterol content of serum lipoprotein
of Sprague-Dawley Rats treated
orally for 14 days at 20 mg/kg/day

[3] = LD50 value in mice as single injection IP; conditions: mouse, in vivo
[4] = system: Serum cholesterol and triglyceride levels; assay: Serum testing of normal rats; assay type: in vivo, Sprague-Dawley male rats; conditions: 20 mg/kg per day orally
Excerpt: as §1
On Days 7 and 14, blood was obtained from each of the rats of the three groups by tail vein bleeding. The blood obtained was separated by centrifugation for three minutes. Serum cholesterol and triglyceride levels were determined in accordance with the procedure of Example 6.

plasma lipids = conditions: rats; cited from earlier work
[5] = normal CF1 mice, 20 mg/kg/d ip, Day 16
[6] = 216 h, normal CF1 mice, 20 mg/kg/d ip, Day 9, read-out: Serum Cholesterol, Day 9
[7] = 384 h, normal CF1 mice, 20 mg/kg/d ip, Day 16, read-out: Serum Cholesterol, Day 16
[8] = 384 h, normal CF1 mice, 20 mg/kg/d ip, Day 16, read-out: Serum Triglyceride, Day 16
[9] = ip, 216 h, read-out: Serum Cholesterol, Day 9
[10] = ip, 384 h, read-out: Serum Cholesterol, Day 16
[11] = ip, 384 h, read-out: Serum Triglyceride, Day 16

Row | Compound | response vs control in vivo at 20 mg/kg/day [1, 6] [%] | response vs control in vivo at 20 mg/kg/day [1, 7] [%] | response vs control in vivo at 20 mg/kg/day [1, 8] [%] | also measured
1 | 4-(4- -n-butyl)-1,2 dipentylcarbonyl-1,2,4-triazolidine-3,5-dione |  |  |  | Serum Cholesterol, Day 9 ([1]; normal CF1 mice, 20 mg/kg/d ip, Day 9): 69 percent control; Serum Cholesterol, Day 16 [1, 5]: 49 percent control; Serum Triglyceride, Day 16 [1, 5]: 53 percent control
2 | CC(=O)n1[nH]c(=O)n(-c2ccccc2)c1=O [A, 4-phenyl-1-methylcarbonyl-1,2,4-triazolidine-3,5-dione] | 67 ± 5 | 61 ± 6 | 48 ± 6 | LD50 (in vivo): > 500 mg/kg; Serum Cholesterol [2]: 41% of Control; Serum Triglyceride [2]: 40% of Control
3 | CC(=O)n1c(=O)n(-c2ccccc2)c(=O)n1C(C)=O [B, 4-phenyl-1,2-dimethylcarbonyl-1,2,4-triazolidine-3,5-dione] | 70 ± 6 | 64 ± 5 | 61 ± 5 | 
4 | CCOC(=O)n1[nH]c(=O)n(-c2ccccc2)c1=O [C, 4-phenyl-1-ethoxycarbonyl-1,2,4-triazolidine-3,5-dione] | 73 ± 7 | 69 ± 5 | 62 ± 6 | 
5 | CC(=O)n1[nH]c(=O)n(-c2ccc(Cl)cc2)c1=O [Compound D, 4-(4-chlorophenyl)-1-methylcarbonyl-1,2,4-triazolidine-3,5-dione] | 73 ± 4 | 64 ± 6 | 55 ± 7 | 
6 | CCOC(=O)c1nc(=O)n(-c2ccccc2)c(=O)[nH]1 [Compound N, 3-phenyl-6-ethoxycarbonyl-1,3,5-triazine-2,4(1 --H,3 --H)-dione] | 63 ± 6 | 54 ± 5 | 51 ± 2 | VLDL cholesterol (serum lipoprotein): 50% of Control; Serum Cholesterol [2]: 50% of Control; Serum Triglyceride [2]: 46% of Control
7 | CCC(=O)n1c(=O)n(-c2ccc([N+](=O)[O-])cc2)c(=O)n1C(=O)CC [Compound S, 4-(4-nitrophenyl)-1,2 diethylcarbonyl-1,2,4-triazolidine-3,5-dione] | 72 | 36 | 62 | 
8 | O=c1[nH][nH]c(=O)n1-c1ccccc1 [E, 4-phenyl-1,2,4-triazolidine-3,5-dione] | 71 ± 5 | 48 ± 3 | 68 ± 6 | 
9 | COc1ccc(-n2c(=O)[nH][nH]c2=O)cc1 [F, 4-(4-methoxyphenyl)-1,2,4-triazolidine-3,5-dione] | 75 ± 5 | 56 ± 4 | 58 ± 3 | 
10 | CCCCn1c(=O)[nH][nH]c1=O [G, 4-(4-n-butyl)-1,2,4-triazolidine-3,5-dione] | 71 ± 6 | 69 ± 5 | 79 ± 8 | 
11 | O=c1[nH][nH]c(=O)n1-c1ccc([N+](=O)[O-])cc1 [H, 4-(4-nitrophenyl)-1,2,4-triazolidine-3,5-dione] | 73 ± 5 | 66 ± 5 | 47 ± 5 | 
12 | O=c1[nH][nH]c(=O)n1-c1ccc(Cl)cc1 [J, 4-(4-chlorophenyl)-1,2,4-triazolidine-3,5-dione] | 90 ± 5 | 58 ± 4 | 43 ± 4 | LD50 (in vivo): > 500 mg/kg; Serum Cholesterol [2]: 46% of Control; Serum Triglyceride [2]: 49% of Control
13 | Cn1c(=O)[nH][nH]c1=O [K, 4-methyl-1,2,4-triazolidine-3,5-dione] | 88 ± 6 | 67 ± 5 | 89 ± 5 | 
14 | CCOC(=O)C1n2c(=O)n(-c3ccc(Cl)cc3)c(=O)n21 [L, 3-(4-chlorophenyl)-6-ethoxyacarbonyl-1,3,5-triazabicyclo[3.1.0]hexane-2,4-dione] |  |  |  | response vs control in vivo at 20 mg/kg/day [1, 9]: 74 ± 3%; response vs control in vivo at 20 mg/kg/day [1, 10]: 56 ± 5%; response vs control in vivo at 20 mg/kg/day [1, 11]: 66 ± 7%
15 | CCOC(=O)C1n2c(=O)n(-c3ccccc3)c(=O)n21 [M, 3-phenyl-6-ethoxycarbonyl-1,3,5-triazabicyclo[3.1.0]hexane-2,4-dione] |  |  |  | response vs control in vivo at 20 mg/kg/day [1, 9]: 62 ± 6%; response vs control in vivo at 20 mg/kg/day [1, 10]: 57 ± 5%; response vs control in vivo at 20 mg/kg/day [1, 11]: 59 ± 6%; LD50 [3]: > 500 mg/kg; Serum Cholestrol, Day 7 ([4]; Day 7): 70% of Control; Serum Triglyceride, Day 7 ([4]; Day 7): 36% of Control; Serum Cholestrol, Day 14 ([4]; Day 14): 36% of Control; Serum Triglyceride, Day 14 ([4]; Day 14): 54% of Control; HDL cholesterol (serum lipoprotein): 340% of Control; LDL cholesterol (serum lipoprotein): 67% of Control; VLDL cholesterol (serum lipoprotein): 71% of Control; Serum Cholesterol [2]: 46% of Control; Serum Triglyceride [2]: 54% of Control
16 | CCOC(=O)c1nc(=O)n(-c2ccc(Cl)cc2)c(=O)[nH]1 [O, 3-(4-chlorophenyl)-6-ethoxycarbonyl-1,3,5-triazine-2,4(1 --H,3 --H)-dione] | 63 ± 4 | 57 ± 4 | 55 ± 6 | 
17 | O=C(O)c1cc(=O)[nH]c(=O)[nH]1 [Orotic acid] |  |  |  | plasma lipids blood level (plasma lipids): decrease the plasma lipids blood level in rats
18 | COc1ccc(-n2c(=O)n(C(C)=O)n(C(C)=O)c2=O)cc1 [P, 4(4-methoxyphenyl)-1,2-dimethylcarbonyl-1,2,4-triazolidine-3,5-dione] | 76 | 57 | 49 | 
19 | O=c1[nH][nH]c(=O)[nH]1 [Parent, 1,2,4-triazolidine-3,5-dione] | 81 | 79 | 73 | 
20 | COc1ccc(-n2c(=O)n(C(=O)c3ccccc3)n(C(=O)c3ccccc3)c2=O)cc1 [Q, 4.(4-methoxyphenyl)-1,2-diphenylcarbonyl-1,2,4-triazolidine-3,5-dione] | 67 | 86 | 75 | 
21 | CCC(=O)n1c(=O)n(-c2ccc(OC)cc2)c(=O)n1C(=O)CC [R, 4.(4-methoxyphenyl)-1,2 diethylcarbonyl-1,2,4-triazolidine-3,5-dione] | 62 | 63 | 62 | 
22 | CC(=O)n1c(=O)n(-c2ccc(Cl)cc2)c(=O)n1C(C)=O [U, 4-(4-chlorophenyl)-1,2-dimethylcarbonyl-1,2,4-triazolidine-3,5-dione] | 72 | 51 | 51 | 
23 | CCCCCC(=O)n1[nH]c(=O)n(-c2ccc(Cl)cc2)c1=O [V, 4-(4-chlorophenyl)1-pentylcarbonyl (2 --H)-1,2,4-triazolidine-3,5 dione] | 77 | 52 | 42 | 
